{"source": "patent US6156762A", "about": "“Indolomorphinan derivative and agent for curing and preventing cerebral disorder” (Toray Industries, Inc., priority 1997, dated 2000)", "key": {"[1]": {"tested_on": "middle cerebral artery ischemia model of rat", "assay": "Infarction inhibiting action in middle cerebral artery ischemia (MCAo-recirculation) model of rat", "assay_type": "in vivo", "conditions": "ip, 24 h, 3 mg/kg i.p. 10 minutes before occlusion and 1 hour after recirculation, infarction volume one day after, vs control group, read-out: Rate of inhibition of infarction", "from_the_text": "It is also known that, in this way, in the acute stage of cerebral infarction, the lesion proceeds to the peripheral tissue from the core of infarction, and death of the nerve cells is extended with the passage of several days. This possible not only extends and creates grave aftereffects, and causes loss of motor and mental function, but also finally critically influences on the life. As an in vivo experimental model of cerebral infarction which is capable of precisely evaluating the clinical effect of a medicine in conformity with clinical conditions of the disease of a patient of cerebral infarction, the middle cerebral artery occlusion (MCAo)-recirculation model comprising an embolus with a yarn using Wister rates may be used [Document: Japan Journal of Stroke, vol. 8, 1 (1986)]. […] This action was evaluated by applying the MCAo model by the method which will be described below.\nIn rats of 10 weeks old, after etherization, a median incision of the cervical region was made up to the right carotid artery bifurcation under 1.0% halothane anesthetization with care to preserve the vagus nerves. The common carotid artery and the external carotid artery were separated from the periphery connective tissue with the right carotid artery bifurcation as the center, and each of the arteries was ligated by a 6-0 silk yarn (Eto yarn). Further, a yarn was wound on the internal carotid artery origin in preparation for ligation and fixing after insertion of the embolus. Next, the common carotid artery was incised, and the embolus was inserted from the common carotid artery to the internal carotid artery by about 15 to 16 mm, and ligated and fixed to the internal carotid artery by the silk yarn at the end thereof near the nylon yarn. In this operation, the end of the embolus was inserted into the anterior cerebral artery by about 1 to 2 mm beyond the middle cerebral artery bifurcation, and the inlet of the middle cerebral artery was occluded by the body (resin part) of the embolus for 1 hours. In recirculation, the embolus with a yarn was removed to recirculate the blood flow to the middle cerebral artery. 3 mg/kg of each of test compounds was intraperitoneally administered 10 minutes before occlusion and 1 hour after recirculation of the blood flow. One day after occlusion and recirculation, the whole body was perfused with physiologic saline through the heart, and the brain was extracted. The extracted brain was cooled with ice and water for 5 minutes, and cut at intervals of 2.0 mm to form 7 sections of the cerebral coronal surface. Each of the sections was stained with TTC (Triphenyltetrazolium Chloride), and fixed by a 5% neutral buffer formalin solution. In each of the sections, the infarction area in the right cerebral hemisphere was measured by an image analyzer (Olympus), and the infarction was evaluated by volume (mm^3). The infarction volume was compared with the infarction volume of a control group to calculate the rate of inhibition of infarction."}, "cultured nerve cells": {"tested_on": "cultured nerve cells", "assay": "Action of protecting cultured nerve cells from glutamic acid toxicity (LDH leakage)", "assay_type": "cell-based, Wistar rat", "conditions": "rat fetal cerebral cortex cells, 10 mM glutamic acid, 24 hours, read-out: ED50 (the source's name)", "from_the_text": "It is known that when the blood flow to the brain is temporarily clogged due to cerebral ischemia, hypoxia, or an trauma, delayed cerebral neuronal death is induced [Document: Brain Research, Vol. 239, 57 (1982)]. A possible cause of such damage of the cerebral nerve cells is excitatory toxicity due to an excitatory neutotransmitter such as glutamic acid or the like, which is excessively released with ischemia [Document: Trends in Neuroscience, vol. 10, 299 (1987)]. […] This is a problem to be solved by the invention. This action was evaluated by using the in vitro evaluation system which will be described below.\nA fetus was taken from the abdomen of a Wistar female rat on the 18 to 19th day of pregnancy under aseptic conditions, and the head of the fetus was opened to extract the brain. The brain was placed in an ice-cooled L-15 medium, and the cerebral cortex was separated under a microscope. The cerebral cortexes of about 30 rats were cut into pieces, and then suspended in 10 ml of a 0.25% trypsin solution and 0.2 ml of a 0.01% DNase solution, followed by culture at 37° C. for 30 minutes. Then, 2 ml of serum was added to the solution, and immediately the resultant mixture was centrifuged at 120 rpm for 2 minutes to separate the precipitates. To the precipitates was added 7 ml of a DF medium (a medium obtained by adding 20 nM of transferrin, 5 μg/ml of insulin, 20 nM of progesterone,60 nM of selenite, 50 U/ml of penicillin, and 50 U/ml of streptomycin to a mixture equivalent amounts of Dulbecco modified Eagle medium and F-12 medium), followed by 20 pipetting operations using a 10-ml plastic pipette to obtain a cell suspension. The cell suspension was filtered with nylon mesh (pore diameter 43 μm) to fractionate isolated cells. The thus-obtained isolated cells were diluted with a DF medium to a concentration of 6.0×10^5 cells/ml, and 500 μl of the diluted cells was inoculated in each of the 48 wells of a 48-well culture plate precoated with polylysine, followed by culture at 37° C. for 1 day in the presence of 5% of CO2. On the 2nd day, the medium was changed to a new DF medium, and 10 μl of a solution of 0.5M glutamic acid in distilled water was added to each of the wells (the final glutamic acid concentration was 10 mM), followed by further culture at 37° C. for 24 hours in the presence 5% of CO2. A test compound was dissolved in distilled water, 10% or 100% DMSO or 10% methanol, and 5 μl of the solution was added to each of the wells immediately before glutamic acid was added. As an index of nerve cell damage, the enzyme activity of lactic acid dehydrogenase (LDH) leaking from the damaged cells into the medium was measured. For each of the test compounds, the LDH leakage was measured at each of concentrations to determine a dose-response curve by the modified Cochran-Armitige method. The 50% effective dose (ED50) of each of the test compounds we determined from the curve."}}}
{"smiles": "Oc1ccc2c3c1O[C@H]1c4[nH]c5c(ccc6ccccc65)c4C[C@@]4(O)[C@@H](C2)N(CC2CC2)CC[C@]314", "note": "[Compound 2, 17-cyclopropylmethyl-3,14β-dihydroxy-6,7-dehydro-4,5α-epoxy-6,7,2',3'-(6',7'-benzoindolo)morphinan]", "values": [{"measurement": "inhibition in vivo at 3 mg/kg", "setting": "[1]", "result": 72, "unit": "%"}, {"measurement": "EC50", "setting": "cultured nerve cells", "result": 33, "unit": "nM"}]}
{"smiles": "Oc1ccc2c3c1O[C@H]1c4[nH]c5c(cc6c7c(cccc75)CC6)c4C[C@@]4(O)[C@@H](C2)N(CC2CC2)CC[C@]314", "note": "[Compound 3, 17-cyclopropylmethyl-3,14β-dihydroxy-6,7-dehydro-4,5α-epoxy-6,7,2',3'-(5',6\"-ethano-6',7'-benzoindolo)morphinan]", "values": [{"measurement": "inhibition in vivo at 3 mg/kg", "setting": "[1]", "result": 54, "unit": "%"}, {"measurement": "EC50", "setting": "cultured nerve cells", "result": 53, "unit": "nM"}]}
{"smiles": "Oc1ccc2c3c1O[C@H]1c4[nH]c5cc(C6CCCCC6)ccc5c4C[C@@]4(O)[C@@H](C2)N(CC2CC2)CC[C@]314", "note": "[Compound 5, 17-cyclopropylmethyl-3,14β-dihydroxy-6,7-dehydro-4,5α-epoxy-6,7,2',3'-(6'-cyclohexylindolo)morphinan]", "values": [{"measurement": "inhibition in vivo at 3 mg/kg", "setting": "[1]", "result": 31, "unit": "%"}, {"measurement": "EC50", "setting": "cultured nerve cells", "result": 120, "unit": "nM"}]}
{"smiles": "CCCCCCCc1cccc2[nH]c3c(c12)C[C@@]1(O)[C@H]2Cc4ccc(O)c5c4[C@@]1(CCN2CC1CC1)[C@H]3O5", "note": "[Compound 6, 17-cyclopropylmethyl-3,14β-dihydroxy-6,7-dehydro-4,5α-epoxy-6,7,2',3'-(4'-heptylindolo)morphinan]", "values": [{"measurement": "inhibition in vivo at 3 mg/kg", "setting": "[1]", "result": 33, "unit": "%"}, {"measurement": "EC50", "setting": "cultured nerve cells", "result": 400, "unit": "nM"}]}
{"smiles": "Oc1ccc2c3c1O[C@H]1c4[nH]c5ccc6ccccc6c5c4C[C@@]4(O)[C@@H](C2)N(CC2CC2)CC[C@]314", "note": "[Compound 8, 17-cyclopropylmethyl-3,14β-dihydroxy-6,7-dehydro-4,5α-epoxy-6,7,2',3'-(4',5'-benzoindolo)morphinan]", "values": [{"measurement": "inhibition in vivo at 3 mg/kg", "setting": "[1]", "result": 49, "unit": "%"}, {"measurement": "EC50", "setting": "cultured nerve cells", "result": 200, "unit": "nM"}]}
{"smiles": "Oc1ccc2c3c1O[C@H]1c4[nH]c5c(cc(Br)c6ccccc65)c4C[C@@]4(O)[C@@H](C2)N(CC2CC2)CC[C@]314", "note": "[Compound 9, 17-cyclopropylmethyl-3,14β-dihydroxy-6,7-dehydro-4,5α-epoxy-6,7,2',3'-(5'-bromo-6',7'-benzoindolo)morphinan]", "values": [{"measurement": "inhibition in vivo at 3 mg/kg", "setting": "[1]", "result": 9, "unit": "%"}, {"measurement": "EC50", "setting": "cultured nerve cells", "result": 110, "unit": "nM"}]}
{"smiles": "Oc1ccc2c3c1O[C@H]1c4[nH]c5c(ccc6cccc(Cl)c65)c4C[C@@]4(O)[C@@H](C2)N(CC2CC2)CC[C@]314", "note": "[Compound 12, 17-cyclopropylmethyl-3,14β-dihydroxy-6,7-dehydro-4,5α-epoxy-6,7,2',3'-(3\"-chloro-6',7'-benzoindolo)morphinan]", "values": [{"measurement": "inhibition in vivo at 3 mg/kg", "setting": "[1]", "result": 67, "unit": "%"}, {"measurement": "EC50", "setting": "cultured nerve cells", "result": 35, "unit": "nM"}]}
{"smiles": "Oc1ccc2c3c1O[C@H]1c4[nH]c5c(cc(F)c6ccccc65)c4C[C@@]4(O)[C@@H](C2)N(CC2CC2)CC[C@]314", "note": "[Compound 14, 17-cyclopropylmethyl-3,14β-dihydroxy-6,7-dehydro-4,5α-epoxy-6,7,2',3'-(5'-fluoro-6',7'-benzoindolo)morphinan]", "values": [{"measurement": "inhibition in vivo at 3 mg/kg", "setting": "[1]", "result": 29, "unit": "%"}, {"measurement": "EC50", "setting": "cultured nerve cells", "result": 86, "unit": "nM"}]}
{"smiles": "COc1ccc2c3c1O[C@H]1c4[nH]c5c(ccc6ccccc65)c4C[C@@]4(O)[C@@H](C2)N(CC2CC2)CC[C@]314", "note": "[Compound 17, 17-cyclopropylmethyl-3-methoxy-14β-hydroxy-6,7-dehydro-4,5α-epoxy-6,7,2',3'-(6',7'-benzoindolo)morphinan]", "values": [{"measurement": "inhibition in vivo at 3 mg/kg", "setting": "[1]", "result": 56, "unit": "%"}, {"measurement": "EC50", "setting": "cultured nerve cells", "result": 120, "unit": "nM"}]}
{"smiles": "O[C@@]12Cc3c([nH]c4c3ccc3ccccc34)[C@@H]3Oc4cccc5c4[C@@]31CCN(CC1CC1)[C@@H]2C5", "note": "[Compound 18, 17-cyclopropylmethyl-14β-hydroxy-6,7-dehydro-4,5α-epoxy-6,7,2',3'-(6',7'-benzoindolo)morphinan]", "values": [{"measurement": "inhibition in vivo at 3 mg/kg", "setting": "[1]", "result": 23, "unit": "%"}, {"measurement": "EC50", "setting": "cultured nerve cells", "result": 900, "unit": "nM"}]}
{"smiles": "Oc1ccc2c3c1O[C@H]1c4[nH]c5c(cc6c7c(cccc75)-c5ccccc5-6)c4C[C@@]4(O)[C@@H](C2)N(CC2CC2)CC[C@]314", "note": "[Compound 19, 17-cyclopropylmethyl-3,14β-dihydroxy-6,7-dehydro-4,5α-epoxy-6,7,2',3'-(5',6\"-benzeno-6',7'-benzoindolo)morphinan]", "values": [{"measurement": "inhibition in vivo at 3 mg/kg", "setting": "[1]", "result": 29, "unit": "%"}, {"measurement": "EC50", "setting": "cultured nerve cells", "result": 200, "unit": "nM"}]}
{"smiles": "Oc1ccc2c3c1O[C@H]1c4[nH]c5c6c(ccc5c4C[C@@]4(O)[C@@H](C2)N(CC2CC2)CC[C@]314)-c1ccccc1C6", "note": "[Compound 20, 17-cyclopropylmethyl-3,14β-dihydroxy-6,7-dehydro-4,5α-epoxy-6,7,2',3'-(6',7',3\",2\"-indenoindolo)morphinan]", "values": [{"measurement": "inhibition in vivo at 3 mg/kg", "setting": "[1]", "result": 10, "unit": "%"}, {"measurement": "EC50", "setting": "cultured nerve cells", "result": 27, "unit": "nM"}]}
{"smiles": "O=C(CCCCCc1ccccc1)NCCCn1c2c(c3ccccc31)C[C@@]1(O)[C@H]3Cc4ccc(O)c5c4[C@@]1(CCN3CC1CC1)[C@H]2O5", "note": "[Compound 62, 17-cyclopropylmethyl-3,14β-dihydroxy-6,7-dehydro-4,5α-epoxy-6,7,2',3'-[1'-[3-(6-phenylhexanoamido)propyl]indolo]morphinan]", "values": [{"measurement": "inhibition in vivo at 3 mg/kg", "setting": "[1]", "result": 10, "unit": "%"}]}
{"smiles": "Oc1ccc2c3c1O[C@H]1c4[nH]c5c(ccc6ccccc65)c4C[C@@]4(O)[C@@H](C2)NCC[C@]314", "note": "[Compound 73, 3, 14β-dihydroxy-6,7-dehydro-4,5α-epoxy-6,7,2',3'-(6',7'-benzoindolo)morphinan]", "values": [{"measurement": "inhibition in vivo at 3 mg/kg", "setting": "[1]", "result": 34, "unit": "%"}]}
{"smiles": "CN1CC[C@]23c4c5ccc(O)c4O[C@H]2c2[nH]c4c(ccc6ccccc64)c2C[C@@]3(O)[C@H]1C5", "note": "[Compound 74, 17-methyl-3,14β-dihydroxy-6,7-dehydro-4,5α-epoxy-6,7,2',3'-(6',7'-benzoindolo)morphinan]", "values": [{"measurement": "inhibition in vivo at 3 mg/kg", "setting": "[1]", "result": 27, "unit": "%"}]}
{"smiles": "Oc1ccc2c3c1O[C@H]1c4[nH]c5c(ccc6ccccc65)c4C[C@@]4(O)[C@@H](C2)N(CCc2ccccc2)CC[C@]314", "note": "[Compound 75, 17-(2-phenylethyl)-3,14β-dihydroxy-6,7-dehydro-4,5α-epoxy-6,7,2',3'-(6',7'-benzoindolo)morphinan]", "values": [{"measurement": "inhibition in vivo at 3 mg/kg", "setting": "[1]", "result": 30, "unit": "%"}]}
{"smiles": "Oc1ccc2c3c1O[C@H]1c4[nH]c5c(ccc6ccccc65)c4C[C@@]4(O)[C@@H](C2)N(CC2CCC2)CC[C@]314", "note": "[Compound 76, 17-cyclobutylmethyl-3,14β-dihydroxy-6,7-dehydro-4,5α-epoxy-6,7,2',3'-(6',7'-benzoindolo)morphinan]", "values": [{"measurement": "inhibition in vivo at 3 mg/kg", "setting": "[1]", "result": 65, "unit": "%"}]}
{"smiles": "CS(=O)(=O)n1c2c(c3ccc4ccccc4c31)C[C@@]1(O)[C@H]3Cc4ccc(O)c5c4[C@@]1(CCN3CC1CC1)[C@H]2O5", "note": "[Compound 78, 17-cyclopropylmethyl-3,14β-dihydroxy-6,7-dehydro-4,5α-epoxy-6,7,2',3'-(1'-methylsulfonyl 6',7'-benzoindolo)morphinan]", "values": [{"measurement": "inhibition in vivo at 3 mg/kg", "setting": "[1]", "result": 55, "unit": "%"}]}
